{"source": "paper PMC12864978", "about": "“Covalent modification of a glutamic acid inspired by HaloTag technology” (Nature Communications, 2026)", "experiment_in_all_cases": "In-lysate thermal proteome profiling (TPP)", "key": {"[1]": {"target": "Jurkat cell lysate proteome (Homo sapiens, UniProt O43924)", "sequence (O43924 whole entry)": "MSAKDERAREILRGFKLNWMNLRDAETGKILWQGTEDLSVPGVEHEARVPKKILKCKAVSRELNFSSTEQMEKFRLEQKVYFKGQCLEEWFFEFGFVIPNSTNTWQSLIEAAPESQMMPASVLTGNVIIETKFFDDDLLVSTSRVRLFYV", "conditions": "10 µM, 15 min", "procedure": "(§1) Jurkat cells were grown to a density of 1.0–2.5 × 10⁶ cells/ml. A 100 ml aliquot of the suspension was divided equally into two Falcon tubes and chilled on ice for 2 min. Cells were pelleted by centrifugation at 350×g for 3 min at room temperature. After discarding the supernatant, the combined pellet was resuspended in 25 ml of ice-cold PBS buffer. The washing step—centrifugation at 350×g for 2 min at room temperature, followed by supernatant removal—was further repeated twice. Following the final wash, the cell pellet was resuspended in 1.5 ml of PBS containing 0.4% (v/v) NP40 alternative and flash-frozen in liquid nitrogen. […] The resulting lysate was separated by ultracentrifugation at 100,000×g for 20 min at 4 °C (Beckman Coulter Optima MAX-XP, MLA-80 rotor). The supernatant was carefully collected, snap-frozen in liquid nitrogen, and stored at −80 °C for subsequent analysis.\n(§2) Protein concentration was quantified using the Bradford protein assay. […] Following incubation, each aliquot was further subdivided into nine 120 µl portions in PCR tubes. […] For analysis, 75 µl of each supernatant was allocated for mass spectrometry-based thermal protein profiling (TPP), while the remaining 25 µl was used for immunoblotting to assess PDEδ levels.\n(§3) For mass spectrometric analysis, sample processing was further proceeded with reduction and alkylation, followed by acetone precipitation and tryptic digestion. Each digested aliquot was then labelled with isobaric TMT reagents (Thermo Fisher Scientific, A52047) corresponding to its specific temperature condition from the thermal shift assay.\n(§4) Proteins were considered as stabilised or destabilised when, in all three replicates,\n(§5) tailed p-values were determined by applying paired t-test comparing AUC of melting curves\n(§6) between DMSO-treated and compound-treated conditions, OR\n(§7) least ± 10 % (same direction) compared to the DMSO control."}, "[2]": {"target": "T1, Jurkat cell lysate proteome (Homo sapiens, UniProt O95628)", "T1 sequence (O95628 1-575)": "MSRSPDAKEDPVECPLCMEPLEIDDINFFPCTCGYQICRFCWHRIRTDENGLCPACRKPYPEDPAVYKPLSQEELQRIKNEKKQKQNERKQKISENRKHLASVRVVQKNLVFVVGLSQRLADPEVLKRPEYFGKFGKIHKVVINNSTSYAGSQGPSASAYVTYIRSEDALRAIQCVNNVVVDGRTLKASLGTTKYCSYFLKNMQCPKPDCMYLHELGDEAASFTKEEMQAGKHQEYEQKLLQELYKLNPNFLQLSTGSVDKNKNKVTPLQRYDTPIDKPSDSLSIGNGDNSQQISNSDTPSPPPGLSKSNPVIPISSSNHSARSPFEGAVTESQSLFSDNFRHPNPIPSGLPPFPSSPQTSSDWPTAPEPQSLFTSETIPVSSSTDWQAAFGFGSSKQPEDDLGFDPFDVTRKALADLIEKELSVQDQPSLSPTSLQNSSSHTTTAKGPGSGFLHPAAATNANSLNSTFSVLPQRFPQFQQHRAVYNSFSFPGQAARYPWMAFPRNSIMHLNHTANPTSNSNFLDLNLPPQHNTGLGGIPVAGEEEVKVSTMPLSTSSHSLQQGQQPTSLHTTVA", "procedure": "as §1, §2, §3, §4, §5, §6, §7"}, "[3]": {"target": "Jurkat cell lysate proteome (Homo sapiens, UniProt P05388)", "procedure": "as §1, §2, §3, §4, §5, §6, §7"}, "[4]": {"target": "Jurkat cell lysate proteome (Homo sapiens, UniProt P07195)", "sequence (P07195 whole entry)": "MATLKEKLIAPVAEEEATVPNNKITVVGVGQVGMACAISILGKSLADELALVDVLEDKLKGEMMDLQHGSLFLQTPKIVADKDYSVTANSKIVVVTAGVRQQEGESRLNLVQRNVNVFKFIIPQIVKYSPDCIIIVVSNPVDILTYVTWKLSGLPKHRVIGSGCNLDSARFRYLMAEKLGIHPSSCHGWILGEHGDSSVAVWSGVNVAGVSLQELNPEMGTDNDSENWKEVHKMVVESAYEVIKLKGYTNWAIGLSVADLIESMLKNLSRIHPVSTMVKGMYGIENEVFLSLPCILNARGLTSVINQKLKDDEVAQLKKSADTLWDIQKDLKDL", "procedure": "as §1, §2, §3, §4, §5, §6, §7"}, "[5]": {"target": "T2, Jurkat cell lysate proteome (Homo sapiens, UniProt P22087)", "T2 sequence (P22087 1-321)": "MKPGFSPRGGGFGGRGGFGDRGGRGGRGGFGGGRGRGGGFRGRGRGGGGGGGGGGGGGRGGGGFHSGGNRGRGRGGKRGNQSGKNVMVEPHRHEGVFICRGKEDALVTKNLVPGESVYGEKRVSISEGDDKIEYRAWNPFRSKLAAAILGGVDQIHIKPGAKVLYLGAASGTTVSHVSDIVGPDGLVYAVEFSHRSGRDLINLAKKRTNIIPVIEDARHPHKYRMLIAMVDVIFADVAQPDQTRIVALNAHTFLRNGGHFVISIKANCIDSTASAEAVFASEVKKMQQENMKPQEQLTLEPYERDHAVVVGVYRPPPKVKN", "procedure": "as §1, §2, §3, §4, §5, §6, §7"}, "[6]": {"target": "T3, Jurkat cell lysate proteome (Homo sapiens, UniProt P24666)", "T3 sequence (P24666 1-158)": "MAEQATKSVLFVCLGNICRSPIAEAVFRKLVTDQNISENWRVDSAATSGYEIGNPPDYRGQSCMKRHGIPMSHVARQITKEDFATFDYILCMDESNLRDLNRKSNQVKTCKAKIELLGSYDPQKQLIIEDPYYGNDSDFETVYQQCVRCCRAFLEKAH", "procedure": "as §1, §2, §3, §4, §5, §6, §7"}, "[7]": {"target": "Jurkat cell lysate proteome (Homo sapiens, UniProt P36404)", "sequence (P36404 whole entry)": "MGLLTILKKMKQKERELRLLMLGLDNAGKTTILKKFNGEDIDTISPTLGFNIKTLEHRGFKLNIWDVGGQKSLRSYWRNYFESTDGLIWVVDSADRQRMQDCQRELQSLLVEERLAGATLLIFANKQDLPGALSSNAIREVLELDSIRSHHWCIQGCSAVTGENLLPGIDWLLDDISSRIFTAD", "procedure": "as §1, §2, §3, §4, §5, §6, §7"}, "[8]": {"target": "T4, Jurkat cell lysate proteome (Homo sapiens, UniProt Q99523)", "T4 sequence (Q99523 78-831)": "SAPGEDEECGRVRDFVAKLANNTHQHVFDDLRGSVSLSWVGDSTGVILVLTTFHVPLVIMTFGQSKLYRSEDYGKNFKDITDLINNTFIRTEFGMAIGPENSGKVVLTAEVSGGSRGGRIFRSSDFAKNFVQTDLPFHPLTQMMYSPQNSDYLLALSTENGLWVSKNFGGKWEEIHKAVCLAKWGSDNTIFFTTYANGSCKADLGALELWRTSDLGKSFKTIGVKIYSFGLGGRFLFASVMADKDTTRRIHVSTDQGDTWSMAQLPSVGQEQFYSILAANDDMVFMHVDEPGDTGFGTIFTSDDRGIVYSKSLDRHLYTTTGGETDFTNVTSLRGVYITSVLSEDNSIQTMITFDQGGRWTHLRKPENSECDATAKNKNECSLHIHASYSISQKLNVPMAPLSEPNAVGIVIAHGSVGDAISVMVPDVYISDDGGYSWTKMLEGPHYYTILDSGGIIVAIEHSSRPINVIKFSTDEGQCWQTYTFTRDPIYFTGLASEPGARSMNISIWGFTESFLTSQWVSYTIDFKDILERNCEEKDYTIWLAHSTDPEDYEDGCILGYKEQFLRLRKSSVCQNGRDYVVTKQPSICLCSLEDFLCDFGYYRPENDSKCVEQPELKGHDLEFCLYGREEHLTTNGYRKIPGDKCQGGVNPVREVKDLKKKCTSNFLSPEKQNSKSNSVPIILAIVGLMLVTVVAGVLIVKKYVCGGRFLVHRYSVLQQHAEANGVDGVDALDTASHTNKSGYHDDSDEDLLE", "procedure": "as §1, §2, §3, §4, §5, §6, §7"}, "[9]": {"target": "T5, Jurkat cell lysate proteome (Homo sapiens, UniProt Q9H2H9)", "T5 sequence (Q9H2H9 1-487)": "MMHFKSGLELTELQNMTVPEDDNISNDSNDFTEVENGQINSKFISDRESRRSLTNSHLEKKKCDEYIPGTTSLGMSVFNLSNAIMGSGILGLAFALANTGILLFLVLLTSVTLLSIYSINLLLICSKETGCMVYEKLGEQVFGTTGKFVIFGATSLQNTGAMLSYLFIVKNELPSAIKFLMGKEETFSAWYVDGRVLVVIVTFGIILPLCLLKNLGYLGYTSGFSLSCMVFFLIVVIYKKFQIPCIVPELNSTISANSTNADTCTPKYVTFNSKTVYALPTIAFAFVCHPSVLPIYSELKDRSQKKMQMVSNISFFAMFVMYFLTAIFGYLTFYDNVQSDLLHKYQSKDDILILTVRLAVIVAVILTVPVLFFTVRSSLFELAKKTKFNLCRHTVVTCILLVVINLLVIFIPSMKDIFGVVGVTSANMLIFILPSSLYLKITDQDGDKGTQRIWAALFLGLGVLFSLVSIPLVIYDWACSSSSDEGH", "procedure": "as §1, §2, §3, §4, §5, §6, §7"}}, "data": [{"smiles": "Cc1ccc(-n2nc3c(=O)n(CCCCS(=O)(=O)N(CCc4cccc(CCBr)c4)CC4CCNCC4)nc(C)c3c2C)cc1", "note": "[6a]", "values": [{"measurement": "ΔI67°C PDE6D", "setting": "[1]", "value": "21 ± 7", "unit": "%"}, {"measurement": "ΔAUC CNOT4", "setting": "[2]; 10 µM, 15 min", "value": -1.7}, {"measurement": "ΔI67°C CNOT4", "setting": "[2]; 10 µM, 15 min", "value": "0 ± 3", "unit": "%"}, {"measurement": "ΔTm at 10 µM", "setting": "[2]; read-out: ΔTm CNOT4, 10 µM, 15 min", "value": "-2.7 ± 1", "unit": "°C"}, {"measurement": "ΔAUC RPLP0", "setting": "[3]; 10 µM, 15 min", "value": -2.9}, {"measurement": "ΔI67°C RPLP0", "setting": "[3]; 10 µM, 15 min", "value": "-4 ± 5", "unit": "%"}, {"measurement": "ΔTm at 10 µM", "setting": "[3]; read-out: ΔTm RPLP0, 10 µM, 15 min", "value": "-5.2 ± 2.7", "unit": "°C"}, {"measurement": "ΔAUC LDHB", "setting": "[4]; 10 µM, 15 min", "value": -1.8}, {"measurement": "ΔI67°C LDHB", "setting": "[4]; 10 µM, 15 min", "value": "-1 ± 4", "unit": "%"}, {"measurement": "ΔTm at 10 µM", "setting": "[4]; read-out: ΔTm LDHB, 10 µM, 15 min", "value": "-2.9 ± 0.7", "unit": "°C"}, {"measurement": "ΔAUC FBL", "setting": "[5]; 10 µM, 15 min", "value": -1.8}, {"measurement": "ΔI67°C FBL", "setting": "[5]; 10 µM, 15 min", "value": "-1 ± 2", "unit": "%"}, {"measurement": "ΔTm at 10 µM", "setting": "[5]; read-out: ΔTm FBL, 10 µM, 15 min", "value": "-1.8 ± 1.1", "unit": "°C"}, {"measurement": "ΔAUC ACP1", "setting": "[6]; 10 µM, 15 min", "value": 2.1}, {"measurement": "ΔI67°C ACP1", "setting": "[6]; 10 µM, 15 min", "value": "0 ± 4", "unit": "%"}, {"measurement": "ΔTm at 10 µM", "setting": "[6]; read-out: ΔTm ACP1, 10 µM, 15 min", "value": "2.3 ± 0.3", "unit": "°C"}, {"measurement": "ΔAUC Arl2", "setting": "[7]; 10 µM, 15 min", "value": 0.97}, {"measurement": "ΔTm at 10 µM", "setting": "[7]; read-out: ΔTm Arl2, 10 µM, 15 min", "value": -0.92, "unit": "°C"}, {"measurement": "ΔAUC SORT1", "setting": "[8]; 10 µM, 15 min", "value": -3.6}, {"measurement": "ΔI67°C SORT1", "setting": "[8]; 10 µM, 15 min", "value": "-16 ± 7", "unit": "%"}, {"measurement": "ΔTm at 10 µM", "setting": "[8]; read-out: ΔTm SORT1, 10 µM, 15 min", "value": "-2.2 ± 2.4", "unit": "°C"}, {"measurement": "ΔAUC SLC38A1", "setting": "[9]; 10 µM, 15 min", "value": -3.3}, {"measurement": "ΔI67°C SLC38A1", "setting": "[9]; 10 µM, 15 min", "value": "-13 ± 5", "unit": "%"}, {"measurement": "ΔTm at 10 µM", "setting": "[9]; read-out: ΔTm SLC38A1, 10 µM, 15 min", "value": "-3.1 ± 0.5", "unit": "°C"}]}]}
